# Measurements from US10849874B2, “Use of composition for modulating angiogenesis” (National Sun Yat-sen University, priority 2015, dated 2020).
# Key:
# diabetic incised wound = assay: Healing of diabetic incised wound (wound appearance and wound area); format: in vivo, Male Wistar rats; conditions: STZ-diabetic rats
# Method: (a) Preparation of Animal and Operation of Incised Wound in Diabetic Rat:
# Male Wistar rats (400-450 g) were used in this experiment. The induction of diabetes was performed by using a citrate buffer solution to prepare streptozotocin (STZ, catalog No. 85882 FLUKA, Sigma, St. Louis, Mo., USA). The rats were anesthetized by 2.5% isoflurane and administered with STZ (60 mg/kg) by tail intravenous injection. A week after STZ injection, those rats with blood glucose levels more than 250 mg/dl were identified as successfully diabetic inducted rats. […] After the surgery of the incision of full-layered skins, the rats were randomly divided into two groups: (1) diabetic incised wound group (administered a normal lotion); and (2) EXC-B treating group (administered a lotion containing excavatolide B). The EXC-B treating group was treated with 1 mg/0.2 ml of excavatolide B in the lotion daily.
# (§1) (c) Wound Observation and Area Calculation:
# After being burned, the rats were anesthetized and then taken pictures according to experimentally designed dates. A series of pictures were taken by a digital camera (Coolpix P6000, Nikon, Japan) under the same condition (the diaphragm is 7.2, and the camera shutter is 1/60). A digital image capture system software (Diagnostic Instruments, Inc., Sterling Heights, Mich., U.S.A.) was used to analyze the captured wound pictures to calculate the wound area. […]
# burn wound = assay: Healing of burn wound (wound appearance and wound area); format: in vivo, Male Wistar rats; conditions: rats; for wound healing depended on time (burned restoring area, area under the curve) compared to burn wound group and lotion treating group: day 0-27 (FIG. 4)
# Method: (b) Preparation of Animal and Operation of Burn Wound:
# Male Wistar rats (400-450 g) were used in this experiment. After the rats were anesthetized by 2.5% isoflurane, the present invention selected four burned locations (two locations beneath the scapula of the rat and two locations in the midline of the lumbar spine) on the back of the anesthetized rat. The skins of the burned locations were tightened, and a copper block (2×2 cm) which was preheated to 175° C. by a dry bath was used to closely touch these skins of the locations for 10 seconds to form burn wounds of full-layered skins. The copper block was appropriately moved in order to form a quadrilateral form of burn wound during the burning process. Attention was paid not to add extra pressure on the copper block in order to ensure the same burn pressure each time during the burning process.
# as §1
# After being burned, the rats were anesthetized and then taken pictures according to experimentally designed dates. A series of pictures were taken by a digital camera (Coolpix P6000, Nikon, Japan) under the same condition (the diaphragm is 7.2, and the camera shutter is 1/60). A digital image capture system software (Diagnostic Instruments, Inc., Sterling Heights, Mich., U.S.A.) was used to analyze the captured wound pictures to calculate the wound area. The data of the wound area at each observation point were respectively presented at percentage of the wound area relative to day zero.
# burn wound tissue = assay: HE staining of tissue section of burn wound; format: in vivo, Male Wistar rats; conditions: rats, lotion containing EXC-B; HE stained tissue section (FIG. 5)
# Method: Pathologic Tissue Slice and HE Staining
# After the rats had suffered injuries for specific days according to experimental design they were humanely sacrificed, PBS containing heparin (0.2 U/ml) at 4 degrees Celsius was injected into aorta until PBS carrying no color flowed out of the vein. 4% paraformaldehyde at 4° C. was injected to fasten it, the wounded area was carefully taken out by surgical blades and immersed into 10% Formalin fixing solution to be reserved at 4° C. and fixed for several days. Next, the fixed tissue was dehydrated and wax infiltrated. The skin tissue was dehydrated and wax infiltrated by utilizing a tissue automatic processing system. Afterwards, the tissue was embedded by a paraffin embedding machine into paraffin blocks. After tissue blocks were sliced through a paraffin microtome, tissue slices were stained by using hematoxylin and eosin stain. Upon completion, tissue slices were mounted by micro-mount, and completed sample slices then were placed on an optical microscope for observation, the sample slices were further photographed and recorded by the digital image capture system.
# [1] = system: vascular endothelial growth factor (VEGF); assay: Staining of VEGF expression level in tissue of burn wound; format: in vivo, rat; conditions: rats, lotion containing EXC-B
# Method: (§2) (b) Immunohistochemistry Staining:
# (§3) Mice were scarified by cervical dislocation. The skin tissues of the backs of the mice were collected, fixed with formalin buffer and embedded in paraffin. The tissue sections were treated with a graded alcohol bath after the paraffin-embedded tissue sections (2 μm) were deparaffinized by xylene. Next, the sections reacted with 0.3% hydrogen peroxide for 30 minutes to remove endogenous peroxidase. After the paraffin-embedded tissue sections reacted with a protein K in a 4% phosphate buffer for 20 minutes at 37° C., the paraffin-embedded tissue sections were washed with 4% phosphate buffer and then blocked with horse serum diluted by phosphate buffer for 1 hr. Next, the sections were incubated with a diluted target protein antibody for 18-20 hr at 4° C. in a humid environment. After recycling the antibody, the horse serum was reused to incubate the sections for 1 hr and the sections subsequently reacted with an added corresponding secondary antibody for 90 minutes. After the sections reacted with ABC kit, DBA was used to produce color reaction, and the sections were air-dried with a graded alcohol bath and covered with a cover glass. The completed sample section was placed in an optical microscope (DM 6000, Leica Inc, Germany) and a stereomicroscope (APO Z16, Leica Inc. Singapore). […]
# [2] = system: angiogenesis (blood vessels marked by vWF); assay: Staining of angiogenesis (blood vessels marked by vWF) in tissue of burn wound; format: in vivo, rat; conditions: rats, lotion containing EXC-B, versus silver sulphadiazine treating group (FIG. 6)
# Method: as §2, §3
# atopic eczema = assay: DNCB-induced atopic eczema model, image analysis of skin appearance; format: in vivo; conditions: balb/c mice
# Method: (a) Preparation of Animal and Induction of Atopic Eczema:
# (§4) The balb/c mice were used in this experiment. The method for inducing atopic eczema comprised: (1) prepared 1% DNCB in olive oil/acetone (1:4); and (2) applied 1% DNCB on the shaved skins of the backs of balb/c mice at day 1, 3, 9, and 11, respectively. The balb/c mice were randomly divided into three groups: (A) the control group; (B) the atopic eczema group; and (C) the EXC-B treating group. The EXC-B treating group was treated with excavatolide B for seven consecutive days starting from day 15. Next, the present invention assessed the treating effect of EXC-B on atopic eczema by image analysis of the appearance.
# VEGF = assay: Staining of VEGF expression level in tissue of atopic eczema; format: in vivo; conditions: balb/c mice, 50 μg/0.2 ml of excavatolide B in lotion (FIG. 8)
# Method: as §4, §2
# (§5) Mice were scarified by cervical dislocation. The skin tissues of the backs of the mice were collected, fixed with formalin buffer and embedded in paraffin. The tissue sections were treated with a graded alcohol bath after the paraffin-embedded tissue sections (2 μm) were deparaffinized by xylene. Next, the sections reacted with 0.3% hydrogen peroxide for 30 minutes to remove endogenous peroxidase. After the paraffin-embedded tissue sections reacted with a protein K in a 4% phosphate buffer for 20 minutes at 37° C., the paraffin-embedded tissue sections were washed with 4% phosphate buffer and then blocked with horse serum diluted by phosphate buffer for 1 hr. […]
# substance P = assay: Staining of itchy factor (substance P as marker) in atopic eczema; format: in vivo; conditions: balb/c mice, 50 μg/0.2 ml of excavatolide B in lotion (FIG. 9)
# Method: as §4, §2, §5
# filaggrin = assay: Staining of regulating factor for skin barrier function (filaggrin as marker) in atopic eczema; format: in vivo; conditions: balb/c mice, 50 μg/0.2 ml of excavatolide B in lotion (FIG. 10)
# Method: as §4, §2, §5
substance,measurement,setting,value
excavatolide B [EXC-B],"wound healing (appearance, image analysis) compared to the diabetic incised wound group","diabetic incised wound; 1 mg/0.2 ml of excavatolide B in lotion daily, topical, appearance at 4-25 days after incised injury (FIG. 1)",significantly improved
same,wound healing (wound restoring area depended on time) compared to the diabetic incised wound group,"diabetic incised wound; 1 mg/0.2 ml of excavatolide B in lotion, at day 7, 21, and 28 (FIG. 2)",significantly improved
same,"wound healing depended on time (burned restoring area, area under the curve) compared to burn wound group and lotion treating group",burn wound; 10 μg EXC-B treating group,significantly accelerate wound healing
same,"wound healing (appearance, image analysis) after burn injury","burn wound; 10 μg/0.2 ml of EXC-B in lotion, appearance at 2-24 days after burn injury (FIG. 3 K-O)",significantly improved
same,"wound healing depended on time (burned restoring area, area under the curve) compared to burn wound group and lotion treating group",burn wound; 50 μg EXC-B treating group,significantly accelerate wound healing
same,"wound healing (appearance, image analysis) after burn injury","burn wound; 50 μg/0.2 ml of EXC-B in lotion, appearance at 2-24 days after burn injury (FIG. 3 P-T)",significantly improved
same,"tissue changes induced by burn injury (thickening of epithelial layer, damages to dermis, infiltration of neutrophils)",burn wound tissue,significantly improved
same,expression level of the VEGF of the burned tissue,[1]; versus lotion treating group (FIG. 6),substantially increased
same,treating effect on VEGF expression of the burned tissue relative to silver sulphadiazine,[1]; versus silver sulphadiazine treating group (FIG. 6),better than the effect of the silver sulphadiazine
same,rate of vascular proliferation (blood vessels marked by vWF),[2],higher than that of the silver sulphadiazine treating group
same,"side effects of the clinical treatment, such as skin dryness and albinism",atopic eczema; 50 μg/0.2 ml of excavatolide B in lotion (FIG. 7),no side effects of the clinical treatment were observed
same,"condition of the treated skin (inflammations, scratched wounds)","atopic eczema; 50 μg/0.2 ml of excavatolide B in lotion, seven consecutive days from day 15 (FIG. 7)",significantly better than the skin of the atopic eczema
same,increased expression of the VEGF in the tissue of atopic eczema,VEGF,inhibited
same,itchy factors (the substance P as the marker) in the tissue of the skin,substance P,significantly inhibited
same,decrease of the regulating factor (filaggrin as the marker) for skin barrier function,filaggrin,recovered
